# Where two headings read alike, the source gives them in different places.
# Key:
# SF-295 = experiment: NCI 60 one dose screen; assay type: cell-based, human; conditions: one dose; CNS Cancer; SF-295
# HCT-15 (Colon Cancer) = experiment: NCI 60 one dose screen; assay type: cell-based, human
# SR = experiment: NCI 60 five dose screen; conditions: SR (Leukemia), five dose
# [1] = test system: 60 different human tumor cell lines; conditions: five dose; for CC50: read-out: LC50
# SF-539 = experiment: NCI 60 one dose screen; assay type: cell-based, human; conditions: one dose; CNS Cancer; SF-539
# gliosarcoma (SF-539) = experiment: NCI 60 five dose screen; conditions: SF-539 (CNS Cancer), five dose
# [2] = A549/ATCC (Non-small Cell Lung Cancer)
# [3] = EKVX (Non-small Cell Lung Cancer)
# [4] = HOP-62 (Non-small Cell Lung Cancer)
# [5] = HOP-92 (Non-small Cell Lung Cancer)
# [6] = MDA-MB-231/ATCC (Breast Cancer)
# [7] = NCI-H23 (Non-small Cell Lung Cancer)
# [8] = NCI-H226 (Non-small Cell Lung Cancer)
# [9] = NCI-H322M (Non-small Cell Lung Cancer)
# [10] = NCI-H460 (Non-small Cell Lung Cancer)
# [11] = NCI-H522 (Non-small Cell Lung Cancer)
structure (smiles),measurement,setting,value
C[C@]12CCc3nc(N)sc3C1=CC[C@@H]1[C@@H]2CC[C@]2(C)C(=NNC(N)=O)CC[C@@H]12 [IVb.1],Growth Percent,SF-295,45.72%
same,Growth Percent,HCT-15 (Colon Cancer),−47.82%
same,GI50,SR,1290 nM
same,TGI,SR,4.33E−6
same,CC50,SR; read-out: LC50,> 100000 nM
same,GI50,[1]; 786-0 (Renal Cancer),1390 nM
same,TGI,[1]; 786-0 (Renal Cancer),2.82E−6
same,GI50,[1]; A498 (Renal Cancer),2100 nM
same,TGI,[1]; A498 (Renal Cancer),6.83E−6
same,GI50,[1]; [2],2020 nM
same,TGI,[1]; [2],3.89E−6
same,GI50,[1]; ACHN (Renal Cancer),1800 nM
same,TGI,[1]; ACHN (Renal Cancer),3.19E−6
same,GI50,[1]; BT-549 (Breast Cancer),2840 nM
same,TGI,[1]; BT-549 (Breast Cancer),8.91E−6
same,GI50,[1]; CAKI-1 (Renal Cancer),1770 nM
same,TGI,[1]; CAKI-1 (Renal Cancer),3.64E−6
same,GI50,[1]; CCRF-CEM (Leukemia),280 nM
same,TGI,[1]; CCRF-CEM (Leukemia),1.62E−6
same,GI50,[1]; COLO 205 (Colon Cancer),2060 nM
same,TGI,[1]; COLO 205 (Colon Cancer),4.37E−6
same,GI50,[1]; DU-145 (Prostate Cancer),1750 nM
same,TGI,[1]; DU-145 (Prostate Cancer),3.41E−6
same,GI50,[1]; [3],1800 nM
same,TGI,[1]; [3],3.63E−6
same,GI50,[1]; HCC-2998 (Colon Cancer),1740 nM
same,TGI,[1]; HCC-2998 (Colon Cancer),3.28E−6
same,GI50,[1]; HCT-15 (Colon Cancer),1460 nM
same,TGI,[1]; HCT-15 (Colon Cancer),2.86E−6
same,GI50,[1]; HCT-116 (Colon Cancer),2090 nM
same,TGI,[1]; HCT-116 (Colon Cancer),4.35E−6
same,GI50,[1]; HL-60(TB) (Leukemia),2730 nM
same,TGI,[1]; HL-60(TB) (Leukemia),7.95E−6
same,GI50,[1]; [4],1840 nM
same,TGI,[1]; [4],3.47E−6
same,GI50,[1]; [5],1510 nM
same,TGI,[1]; [5],3.16E−6
same,GI50,[1]; HS 578T (Breast Cancer),2080 nM
same,TGI,[1]; HS 578T (Breast Cancer),5.15E−6
same,GI50,[1]; HT29 (Colon Cancer),1880 nM
same,TGI,[1]; HT29 (Colon Cancer),3.73E−6
same,GI50,[1]; IGROV1 (Ovarian Cancer),1780 nM
same,TGI,[1]; IGROV1 (Ovarian Cancer),3.43E−6
same,GI50,[1]; K-562 (Leukemia),1810 nM
same,TGI,[1]; K-562 (Leukemia),5.08E−6
same,GI50,[1]; KM12 (Colon Cancer),2010 nM
same,TGI,[1]; KM12 (Colon Cancer),4.01E−6
same,GI50,[1]; LOX IMVI (Melanoma),1710 nM
same,TGI,[1]; LOX IMVI (Melanoma),3.12E−6
same,GI50,[1]; M14 (Melanoma),1940 nM
same,TGI,[1]; M14 (Melanoma),3.77E−6
same,GI50,[1]; MALME-3M (Melanoma),1760 nM
same,TGI,[1]; MALME-3M (Melanoma),3.49E−6
same,GI50,[1]; MCF7 (Breast Cancer),1520 nM
same,TGI,[1]; MCF7 (Breast Cancer),3.14E−6
same,GI50,[1]; [6],1700 nM
same,TGI,[1]; [6],3.43E−6
same,GI50,[1]; MDA-MB-435 (Melanoma),1330 nM
same,TGI,[1]; MDA-MB-435 (Melanoma),2.70E−6
same,GI50,[1]; MDA-MB-468 (Breast Cancer),1600 nM
same,TGI,[1]; MDA-MB-468 (Breast Cancer),3.17E−6
same,GI50,[1]; MOLT-4 (Leukemia),2640 nM
same,TGI,[1]; MOLT-4 (Leukemia),7.02E−6
same,GI50,[1]; [7],1780 nM
same,TGI,[1]; [7],3.32E−6
same,GI50,[1]; [8],2090 nM
same,TGI,[1]; [8],4.91E6
same,GI50,[1]; [9],1770 nM
same,TGI,[1]; [9],3.55E−6
same,GI50,[1]; [10],1920 nM
same,TGI,[1]; [10],3.61E−6
same,GI50,[1]; [11],1930 nM
same,TGI,[1]; [11],4.06E−6
same,GI50,[1]; NCI/ADR-RES (Ovarian Cancer),1940 nM
same,TGI,[1]; NCI/ADR-RES (Ovarian Cancer),3.87E−6
same,GI50,[1]; OVCAR-3 (Ovarian Cancer),1870 nM
same,TGI,[1]; OVCAR-3 (Ovarian Cancer),3.44E−6
same,GI50,[1]; OVCAR-4 (Ovarian Cancer),1740 nM
same,TGI,[1]; OVCAR-4 (Ovarian Cancer),3.17E−6
same,GI50,[1]; OVCAR-5 (Ovarian Cancer),1710 nM
same,GI50,[1]; OVCAR-8 (Ovarian Cancer),1850 nM
same,TGI,[1]; OVCAR-8 (Ovarian Cancer),3.63E−6
same,GI50,[1]; PC-3 (Prostate Cancer),1250 nM
same,TGI,[1]; PC-3 (Prostate Cancer),2.75E−6
same,GI50,[1]; RXF 393 (Renal Cancer),1610 nM
same,TGI,[1]; RXF 393 (Renal Cancer),3.23E−6
same,GI50,[1]; SF-268 (CNS Cancer),1780 nM
same,TGI,[1]; SF-268 (CNS Cancer),4.11E−6
same,GI50,[1]; SK-MEL-2 (Melanoma),1980 nM
same,TGI,[1]; SK-MEL-2 (Melanoma),4.58E−6
same,GI50,[1]; SK-MEL-5 (Melanoma),1570 nM
same,TGI,[1]; SK-MEL-5 (Melanoma),2.97E−6
same,GI50,[1]; SK-MEL-28 (Melanoma),1630 nM
same,TGI,[1]; SK-MEL-28 (Melanoma),3.10E−6
same,GI50,[1]; SK-OV-3 (Ovarian Cancer),6210 nM
same,TGI,[1]; SK-OV-3 (Ovarian Cancer),2.23E−6
same,GI50,[1]; SN12C (Renal Cancer),1890 nM
same,TGI,[1]; SN12C (Renal Cancer),3.45E−6
same,GI50,[1]; SNB-19 (CNS Cancer),1870 nM
same,TGI,[1]; SNB-19 (CNS Cancer),3.62E−6
same,GI50,[1]; SNB-75 (CNS Cancer),1580 nM
same,TGI,[1]; SNB-75 (CNS Cancer),3.50E−6
same,GI50,[1]; SW-620 (Colon Cancer),1690 nM
same,TGI,[1]; SW-620 (Colon Cancer),3.39E−6
same,GI50,[1]; T-47D (Breast Cancer),1860 nM
same,TGI,[1]; T-47D (Breast Cancer),3.80E−6
same,GI50,[1]; TK-10 (Renal Cancer),2290 nM
same,TGI,[1]; TK-10 (Renal Cancer),5.45E−6
same,GI50,[1]; U251 (CNS Cancer),1770 nM
same,TGI,[1]; U251 (CNS Cancer),3.22E−6
same,GI50,[1]; UACC-62 (Melanoma),1630 nM
same,TGI,[1]; UACC-62 (Melanoma),3.13E−6
same,GI50,[1]; UACC-257 (Melanoma),2400 nM
same,TGI,[1]; UACC-257 (Melanoma),5.83E−6
same,GI50,[1]; UO-31 (Renal Cancer),1520 nM
same,TGI,[1]; UO-31 (Renal Cancer),2.88E−6
same,CC50,[1]; 786-0 (Renal Cancer),5960 nM
same,CC50,[1]; A498 (Renal Cancer),27800 nM
same,CC50,[1]; [2],7510 nM
same,CC50,[1]; ACHN (Renal Cancer),5680 nM
same,CC50,[1]; BT-549 (Breast Cancer),88500 nM
same,CC50,[1]; CAKI-1 (Renal Cancer),7490 nM
same,CC50,[1]; CCRF-CEM (Leukemia),> 100000 nM
same,CC50,[1]; COLO 205 (Colon Cancer),9250 nM
same,CC50,[1]; DU-145 (Prostate Cancer),6660 nM
same,CC50,[1]; [3],7320 nM
same,CC50,[1]; HCC-2998 (Colon Cancer),6150 nM
same,CC50,[1]; HCT-15 (Colon Cancer),5600 nM
same,CC50,[1]; HCT-116 (Colon Cancer),9070 nM
same,CC50,[1]; HL-60(TB) (Leukemia),> 100000 nM
same,CC50,[1]; [4],6540 nM
same,CC50,[1]; [5],6600 nM
same,CC50,[1]; HT29 (Colon Cancer),7410 nM
same,CC50,[1]; IGROV1 (Ovarian Cancer),6630 nM
same,CC50,[1]; K-562 (Leukemia),40400 nM
same,CC50,[1]; KM12 (Colon Cancer),6790 nM
same,CC50,[1]; LOX IMVI (Melanoma),5720 nM
same,CC50,[1]; M14 (Melanoma),7310 nM
same,CC50,[1]; MALME-3M (Melanoma),6900 nM
same,CC50,[1]; MCF7 (Breast Cancer),6500 nM
same,CC50,[1]; [6],6900 nM
same,CC50,[1]; MDA-MB-435 (Melanoma),5490 nM
same,CC50,[1]; MDA-MB-468 (Breast Cancer),6300 nM
same,CC50,[1]; MOLT-4 (Leukemia),93300 nM
same,CC50,[1]; [7],6210 nM
same,CC50,[1]; [8],17400 nM
same,CC50,[1]; [10],6790 nM
same,CC50,[1]; [11],8550 nM
same,CC50,[1]; NCI/ADR-RES (Ovarian Cancer),7710 nM
same,CC50,[1]; OVCAR-3 (Ovarian Cancer),6340 nM
same,CC50,[1]; OVCAR-4 (Ovarian Cancer),5780 nM
same,CC50,[1]; OVCAR-5 (Ovarian Cancer),5960 nM
same,CC50,[1]; OVCAR-8 (Ovarian Cancer),7110 nM
same,CC50,[1]; PC-3 (Prostate Cancer),6010 nM
same,CC50,[1]; RXF 393 (Renal Cancer),6480 nM
same,CC50,[1]; SF-268 (CNS Cancer),9480 nM
same,CC50,[1]; SK-MEL-2 (Melanoma),12400 nM
same,CC50,[1]; SK-MEL-5 (Melanoma),5610 nM
same,CC50,[1]; SK-MEL-28 (Melanoma),5880 nM
same,CC50,[1]; SK-OV-3 (Ovarian Cancer),66700 nM
same,CC50,[1]; SN12C (Renal Cancer),6330 nM
same,CC50,[1]; SNB-19 (CNS Cancer),7010 nM
same,CC50,[1]; SNB-75 (CNS Cancer),7760 nM
same,CC50,[1]; SW-620 (Colon Cancer),8550 nM
same,CC50,[1]; T-47D (Breast Cancer),7770 nM
same,CC50,[1]; TK-10 (Renal Cancer),19300 nM
same,CC50,[1]; U251 (CNS Cancer),5860 nM
same,CC50,[1]; UACC-62 (Melanoma),5980 nM
same,CC50,[1]; UACC-257 (Melanoma),25700 nM
same,CC50,[1]; UO-31 (Renal Cancer),5440 nM
same,Growth Percent,SF-539,87.19%
same,GI50,gliosarcoma (SF-539),2050 nM
same,TGI,gliosarcoma (SF-539),5.23E−6
same,CC50,gliosarcoma (SF-539); read-out: LC50,19800 nM

# Source: patent publication US20250296953A1, “3,4-THIAZOLO-STEROIDS AND METHODS OF MAKING AND USING THE SAME” (Arkansas State University - Jonesboro, priority 2018, published 2025)
